Measured values published in patent publication US20060167109A1, “Methods of reducing rhinovirus contagion and related compositions” (priority 2002, published 2006).

Legend:
Test in all cases: HRV cytopathic effect assay
Assay type in all cases: cell-based
Conditions in all cases: Human rhinovirus sp.
HRV serotype 100 = test system: HRV serotype 100
Description: (§1) For sensitivity testing to pleconaril, the appropriate cells were seeded into 96 well plates at a concentration of 4×10^4/well. After an overnight incubation at 37° C., the medium was removed and the cells were infected with 150 μL of a dilution of virus previously titrated to give ≧85% lysis of the monolayer after 3 days of incubation. The plates were incubated for 1 hour at the appropriate temperature and then overlaid with 50 μL of medium containing serial 2-fold dilutions of pleconaril in 2% DMSO. The final DMSO concentration in the assay was always 0.5%. No virus and no pleconaril controls were included on each plate. All drug concentrations were run in quadruplicate. The plates were then incubated for 3 days at the appropriate temperature followed by processing as described above.

HRV serotype 10 = test system: HRV serotype 10
Description: as §1

HRV serotype 11 = test system: HRV serotype 11
Description: as §1

HRV serotype 12 = test system: HRV serotype 12
Description: as §1

HRV serotype 13 = test system: HRV serotype 13
Description: as §1

HRV serotype 14 = test system: HRV serotype 14
Description: as §1

HRV serotype 19 = test system: HRV serotype 19
Description: as §1

HRV serotype 1A = test system: HRV serotype 1A
Description: as §1

HRV serotype 1B = test system: HRV serotype 1B
Description: as §1

HRV serotype 20 = test system: HRV serotype 20
Description: as §1

HRV serotype 24 = test system: HRV serotype 24
Description: as §1

HRV serotype 28 = test system: HRV serotype 28
Description: as §1

HRV serotype 29 = test system: HRV serotype 29
Description: as §1

HRV serotype 2 = test system: HRV serotype 2
Description: as §1

HRV serotype 30 = test system: HRV serotype 30
Description: as §1

HRV serotype 32 = test system: HRV serotype 32
Description: as §1

HRV serotype 33 = test system: HRV serotype 33
Description: as §1

HRV serotype 36 = test system: HRV serotype 36
Description: as §1

HRV serotype 37 = test system: HRV serotype 37
Description: as §1

HRV serotype 3 = test system: HRV serotype 3
Description: as §1

HRV serotype 40 = test system: HRV serotype 40
Description: as §1

HRV serotype 41 = test system: HRV serotype 41
Description: as §1

HRV serotype 43 = test system: HRV serotype 43
Description: as §1

HRV serotype 48 = test system: HRV serotype 48
Description: as §1

HRV serotype 4 = test system: HRV serotype 4
Description: as §1

HRV serotype 51 = test system: HRV serotype 51
Description: as §1

HRV serotype 52 = test system: HRV serotype 52
Description: as §1

HRV serotype 53 = test system: HRV serotype 53
Description: as §1

HRV serotype 55 = test system: HRV serotype 55
Description: as §1

HRV serotype 63 = test system: HRV serotype 63
Description: as §1

HRV serotype 65 = test system: HRV serotype 65
Description: as §1

HRV serotype 68 = test system: HRV serotype 68
Description: as §1

HRV serotype 71 = test system: HRV serotype 71
Description: as §1

HRV serotype 73 = test system: HRV serotype 73
Description: as §1

HRV serotype 76 = test system: HRV serotype 76
Description: as §1

HRV serotype 77 = test system: HRV serotype 77
Description: as §1

HRV serotype 80 = test system: HRV serotype 80
Description: as §1

HRV serotype 82 = test system: HRV serotype 82
Description: as §1

HRV serotype 86 = test system: HRV serotype 86
Description: as §1

HRV serotype 88 = test system: HRV serotype 88
Description: as §1

HRV serotype 92 = test system: HRV serotype 92
Description: as §1

HRV serotype 97 = test system: HRV serotype 97
Description: as §1

HRV serotype 99 = test system: HRV serotype 99
Description: as §1

## Cc1cc(CCCOc2c(C)cc(-c3noc(C(F)(F)F)n3)cc2C)on1 [pleconaril, 3-[3,5-dimethyl-4-[3-(3-methyl-5-isoxazolyl)propoxy]phenyl]-5-(trifluoromethyl)-1,2,4-oxadiazole]
HRV serotype 100
  IC50: 30 ± 10 nM
HRV serotype 10
  IC50: 130 ± 50 nM
HRV serotype 11
  IC50: 150 ± 40 nM
HRV serotype 12
  IC50: 390 ± 120 nM
HRV serotype 13
  IC50: 580 ± 130 nM
HRV serotype 14; HRV14, Table 2, mean of at least two independent determinations
  IC50: 160 ± 90 nM
HRV serotype 14; serotype 14
  IC50: 160 ± 90 nM
HRV serotype 19
  IC50: 200 ± 10 nM
HRV serotype 1A; HRV1A, Table 2, mean of at least two independent determinations
  IC50: 430 ± 170 nM
HRV serotype 1A; serotype 1A
  IC50: 430 ± 170 nM
HRV serotype 1B
  IC50: 160 ± 30 nM
HRV serotype 20
  IC50: 60 nM
HRV serotype 24
  IC50: 210 ± 20 nM
HRV serotype 28
  IC50: 200 ± 70 nM
HRV serotype 29
  IC50: 270 ± 70 nM
HRV serotype 2; HRV2, Table 2, mean of at least two independent determinations
  IC50: 30 ± 30 nM
HRV serotype 2; serotype 2
  IC50: 30 ± 30 nM
HRV serotype 30
  IC50: 230 ± 80 nM
HRV serotype 32
  IC50: 330 ± 130 nM
HRV serotype 33
  IC50: 160 ± 30 nM
HRV serotype 36
  IC50: 110 ± 20 nM
HRV serotype 37
  IC50: 60 ± 20 nM
HRV serotype 3; HRV3, Table 2, mean of at least two independent determinations
  IC50: 90 ± 40 nM
HRV serotype 3; serotype 3
  IC50: 90 ± 40 nM
HRV serotype 40
  IC50: 70 ± 30 nM
HRV serotype 41
  IC50: 1750 ± 1490 nM
HRV serotype 43
  IC50: 230 ± 110 nM
HRV serotype 48
  IC50: 1800 ± 630 nM
HRV serotype 4
  IC50: > 12.5 µM
HRV serotype 51
  IC50: 50 ± 30 nM
HRV serotype 52
  IC50: 2490 ± 1210 nM
HRV serotype 53
  IC50: 280 ± 60 nM
HRV serotype 55
  IC50: 20 ± 20 nM
HRV serotype 63
  IC50: 160 ± 80 nM
HRV serotype 65
  IC50: 330 ± 100 nM
HRV serotype 68
  IC50: 30 ± 20 nM
HRV serotype 71
  IC50: 20 ± 10 nM
HRV serotype 73
  IC50: 210 ± 90 nM
HRV serotype 76
  IC50: 240 ± 290 nM
HRV serotype 77
  IC50: 550 ± 290 nM
HRV serotype 80
  IC50: 170 ± 30 nM
HRV serotype 82
  IC50: 220 ± 190 nM
HRV serotype 86
  IC50: 130 ± 100 nM
HRV serotype 88
  IC50: 100 ± 40 nM
HRV serotype 92
  IC50: 20 ± 10 nM
HRV serotype 97
  IC50: > 12.5 µM
HRV serotype 99
  IC50: > 12.5 µM
